Laboratory results reported in ChEMBL document CHEMBL5370677, “Emopamil-Binding Protein Inhibitors for Treating Multiple Sclerosis” (ACS Med Chem Lett, 2023).

What follows are molecules tested against 3-beta-hydroxysteroid-Delta(8),Delta(7)-isomerase (Homo sapiens, UniProt Q15125) (assay: Inhibition of EBP derived from HEK293T cells using zymosterol-d5 as substrate preincubated for 30 mins followed by substrate addition measured after 4 hrs by LC-APCI MRM MS analysis).
Sequence of 3-beta-hydroxysteroid-Delta(8),Delta(7)-isomerase (Q15125 whole entry): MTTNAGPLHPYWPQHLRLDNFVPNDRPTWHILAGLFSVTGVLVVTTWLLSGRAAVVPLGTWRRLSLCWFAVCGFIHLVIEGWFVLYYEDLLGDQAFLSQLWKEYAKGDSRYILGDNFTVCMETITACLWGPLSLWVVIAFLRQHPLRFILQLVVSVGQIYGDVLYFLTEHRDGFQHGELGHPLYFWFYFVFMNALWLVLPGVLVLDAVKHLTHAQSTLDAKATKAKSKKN
Format: cell-based
O=S(=O)(c1ccc2c(c1)OCCO2)N1CCC2(CCC(N3CC4(COC4)C3)C2)CC1 (stereo unspecified) was tested, and the IC50 was < 100 nM. With COc1nccc(S(=O)(=O)N2CCC3(CCC(N4CCOCC4)C3)CC2)c1F (stereo unspecified) the IC50 was < 100 nM. With O=S(=O)(c1coc(C(F)(F)F)c1)N1CCC2(CCC(N3CC4(COC4)C3)C2)CC1 (stereo unspecified) the IC50 was < 100 nM. O=S(=O)(c1ccc(F)cc1)N1CCC2(CCC(N3CC4(COC4)C3)C2)CC1 (stereo unspecified) was tested, and the IC50 was < 100 nM. For Cc1nc(C(F)(F)F)ncc1S(=O)(=O)N1CCC2(CC1)CC(N(C)C1CC3(COC3)C1)CO2 (stereo unspecified), the IC50 was < 100 nM. For Cn1nc(C2CC2)cc1S(=O)(=O)N1CCC2(CC1)CC(NC1CCOCC1)C2, the IC50 was < 100 nM.
